From ChEMBL document CHEMBL4828721, “Substituted dienes prepared from betulinic acid - Synthesis, cytotoxicity, mechanism of action, and pharmacological parameters” (Eur J Med Chem, 2021) come the findings set out here.

Test [1] has as its system CCRF-CEM. The test can be described thus: Cytotoxicity against human CCRF-CEM cells assessed as reduction in cell viability measured after 72 hrs by MTS assay. The format is functional, cell-based. (In general: Formazan colour is commonly taken as a measure of viable cells.)
The subject of test [2] is CEM-DNR. In words: Cytotoxicity against daunorubicin resistant human CEM-DNR cells assessed as reduction in cell viability measured after 72 hrs by MTS assay. In kind it is functional, cell-based.
Test [3] concerns HCT-116. In words: Cytotoxicity against human HCT-116 cells assessed as reduction in cell viability measured after 72 hrs by MTS assay. The settings on record: HCT-116, 72 h. The format is functional, cell-based.
Test [4] can be described thus: Cytotoxicity against human HCT116 p53-null cells assessed as reduction in cell viability measured after 72 hrs by MTS assay. The format is functional, cell-based.
The test system of test [5] is K562. The test can be described thus: Cytotoxicity against human K562 cells assessed as reduction in cell viability measured after 72 hrs by MTS assay. The format is functional, cell-based. The settings on record: K562, 72 h.
Test [6] can be described thus: Cytotoxicity against paclitaxel resistant human K562-Tax cells assessed as reduction in cell viability measured after 72 hrs by MTS assay. The format is functional, cell-based.
Test [7] has as its system A549. In words: Cytotoxicity against human A549 cells assessed as reduction in cell viability measured after 72 hrs by MTS assay. In kind it is functional, cell-based. The settings on record: A549, 72 h.
Test [8] has as its system U2OS. The test can be described thus: Cytotoxicity against human U2OS cells assessed as reduction in cell viability measured after 72 hrs by MTS assay. The format is functional, cell-based.
Test [9] has as its system BJ. In words: Cytotoxicity against human BJ cells assessed as reduction in cell viability measured after 72 hrs by MTS assay. The format is cell-based.
Test [10] relates to MRC5. The test can be described thus: Cytotoxicity against human MRC5 cells assessed as reduction in cell viability measured after 72 hrs by MTS assay. The settings on record: MRC5, 72 h. In kind it is cell-based.

In the case of `C=C(/C=C/c1ccccn1)[C@@H]1CC[C@]2(C(=O)O)CC[C@]3(C)[C@H](CC[C@@H]4[C@@]5(C)CC[C@H](O)C(C)(C)[C@@H]5CC[C@]43C)[C@@H]12`, the IC50 (usually the midpoint of a concentration-inhibition curve) in test [1] was 19.7 µM; in test [2], 27.7 µM; in [3] it was over 50 µM; in [4], over 50 µM; in test [5], over 50 µM; in test [6], 29.2 µM. Also, the IC50 in test [7], in [8], in test [9] and in test [10] was over 50 µM in each case.
As for `C=C(/C=C/c1cccnc1)[C@@H]1CC[C@]2(C(=O)O)CC[C@]3(C)[C@H](CC[C@@H]4[C@@]5(C)CC[C@H](O)C(C)(C)[C@@H]5CC[C@]43C)[C@@H]12`, the concentration for half-maximal inhibition (IC50) is 11.3 µM in [1]; 17.4 µM in test [2]; 30.9 µM in [3]; 32.8 µM in test [4]; over 50 µM in test [5]; 14.2 µM in test [6]. For the same molecule, the 50% inhibitory concentration (IC50) was 26.2 µM in test [7], 30.9 µM in test [8], over 50 µM in [9] and over 50 µM in [10].
Consider `C=C(/C=C/c1cccc(C(=O)O)c1)[C@@H]1CC[C@]2(C(=O)O)CC[C@]3(C)[C@H](CC[C@@H]4[C@@]5(C)CC[C@H](O)C(C)(C)[C@@H]5CC[C@]43C)[C@@H]12`, for which the IC50 in test [1] is 20.1 µM; in test [2], 33.9 µM; in test [3], 43.4 µM; in [4] it was 43.1 µM; in test [5], over 50 µM; in test [6], 36.7 µM. Moreover, the IC50 in test [7], in test [8], in test [9] and in [10] was over 50 µM in each case.
`C=C(/C=C/c1ccc(C(F)(F)F)cc1)[C@@H]1CC[C@]2(C(=O)O)CC[C@]3(C)[C@H](CC[C@@H]4[C@@]5(C)CC[C@H](O)C(C)(C)[C@@H]5CC[C@]43C)[C@@H]12`: the IC50 in test [1] was found to be 21.5 µM; in test [2] it was 40.9 µM; in test [3], 40.9 µM; in [4], 31.9 µM; in test [5], 40.5 µM; in test [6] it was 45.6 µM. Further, the IC50 in [7] came to 41.4 µM; in [8], 28.2 µM; in test [9] it was 49.5 µM; in [10], 42.4 µM.
As for `C=C(/C=C/c1ccc(C(=O)O)cc1)[C@@H]1CC[C@]2(C(=O)O)CC[C@]3(C)[C@H](CC[C@@H]4[C@@]5(C)CC[C@H](O)C(C)(C)[C@@H]5CC[C@]43C)[C@@H]12`, the IC50 in test [1] is 17.5 µM; in test [2], 32 µM; in test [3], 39 µM; in test [4], 42.5 µM; in test [5], over 50 µM; in test [6] it was 39.2 µM. For the same molecule, the IC50 in test [7] is over 50 µM; in test [8] it was 49 µM; in test [9] it was over 50 µM; in test [10], over 50 µM.
For the molecule `C=C(/C=C/c1ccc(OC)cc1)[C@@H]1CC[C@]2(C(=O)O)CC[C@]3(C)[C@H](CC[C@@H]4[C@@]5(C)CC[C@H](O)C(C)(C)[C@@H]5CC[C@]43C)[C@@H]12`, the IC50 in [1] was 20.9 µM; in test [2], over 50 µM; in test [3], 42.4 µM; in [4], 48.9 µM; in test [5], over 50 µM; in test [6], 48.6 µM. The IC50 in [7] was over 50 µM; in test [8], 48.6 µM; in [9], over 50 µM; in [10], over 50 µM.
Regarding `C=C(/C=C/c1cccc(C)c1)[C@@H]1CC[C@]2(C(=O)O)CC[C@]3(C)[C@H](CC[C@@H]4[C@@]5(C)CC[C@H](O)C(C)(C)[C@@H]5CC[C@]43C)[C@@H]12`, the IC50 in test [1] is 9.5 µM; in test [2] it was 21.4 µM; in test [3], 24.7 µM; in test [4] it was 22.3 µM; in test [5], 24.9 µM; in test [6], 23.6 µM. In addition, the half-inhibitory concentration (IC50) is 36.5 µM in [7], 18.2 µM in [8], over 50 µM in [9] and 42.2 µM in test [10].
Regarding `C=C(/C=C/c1ccncc1)[C@@H]1CC[C@]2(C(=O)O)CC[C@]3(C)[C@H](CC[C@@H]4[C@@]5(C)CC[C@H](O)C(C)(C)[C@@H]5CC[C@]43C)[C@@H]12`, the IC50 was found to be 5.9 µM in [1]; 20.5 µM in test [2]; 35 µM in test [3]; 30.6 µM in [4]; 43.4 µM in test [5]; 20.6 µM in [6]. Further, the half-maximal inhibitory concentration (IC50) is 46 µM in test [7], 29.7 µM in test [8], over 50 µM in test [9] and over 50 µM in test [10].
Regarding `C=C(/C=C/c1ccc(F)c(Cl)c1)[C@@H]1CC[C@]2(C(=O)O)CC[C@]3(C)[C@H](CC[C@@H]4[C@@]5(C)CC[C@H](O)C(C)(C)[C@@H]5CC[C@]43C)[C@@H]12`, the IC50 in [1] was 5.5 µM; in test [2], 27.8 µM; in test [3] it was 21.8 µM; in [4] it was 20.8 µM; in test [5], 40.6 µM; in test [6], 25.2 µM. Also, the IC50 is 45.5 µM in [7], 26.5 µM in test [8], over 50 µM in test [9] and 32.4 µM in test [10].
For the molecule `C=C(/C=C/c1cc(OC)cc(OC)c1)[C@@H]1CC[C@]2(C(=O)O)CC[C@]3(C)[C@H](CC[C@@H]4[C@@]5(C)CC[C@H](O)C(C)(C)[C@@H]5CC[C@]43C)[C@@H]12`, the IC50 in test [1] was 10 µM; in test [2], 13.7 µM; in test [3] it was 17.3 µM; in test [4], 20.8 µM; in [5] it was 22.2 µM; in test [6], 16 µM. For the same molecule, the IC50 came out at 19 µM in test [7], 22.3 µM in test [8], 47.6 µM in [9] and 29.2 µM in test [10].
Consider `C=C(/C=C/c1cccc([N+](=O)[O-])c1)[C@@H]1CC[C@]2(C(=O)O)CC[C@]3(C)[C@H](CC[C@@H]4[C@@]5(C)CC[C@H](O)C(C)(C)[C@@H]5CC[C@]43C)[C@@H]12`, for which the half-inhibitory concentration (IC50) in [1] was 12.4 µM; in test [2], 25.3 µM; in test [3], 37.5 µM; in test [4], 35.5 µM; in test [5] it was over 50 µM; in test [6] it was 24.3 µM. Besides, the IC50 was 48.8 µM in test [7], 29.3 µM in test [8], over 50 µM in test [9] and 45.1 µM in test [10].
In the case of `C=C(C=O)[C@@H]1CC[C@]2(C(=O)O)CC[C@]3(C)[C@H](CC[C@@H]4[C@@]5(C)CC[C@H](O)C(C)(C)[C@@H]5CC[C@]43C)[C@@H]12`, the IC50 in [1] amounted to 0.8 µM; in [2], 3.8 µM; in test [3], 1.9 µM; in [4] it was 1.9 µM; in [5], 3.4 µM; in [6] it was 1.3 µM. In addition, the IC50 in test [7] was over 50 µM; in test [8] it was 1.3 µM; in test [9] it was 6.7 µM; in test [10] it was 2.6 µM.
With `C=C(/C=C/c1ccc(C)cc1)[C@@H]1CC[C@]2(C(=O)O)CC[C@]3(C)[C@H](CC[C@@H]4[C@@]5(C)CC[C@H](O)C(C)(C)[C@@H]5CC[C@]43C)[C@@H]12`, the half-maximal inhibitory concentration (IC50) in [1] was 5.9 µM; in test [2], 26.1 µM; in test [3] it was 21.4 µM; in test [4] it was 18.2 µM; in [5], over 50 µM; in test [6] it was 26.3 µM. For the same molecule, the half-inhibitory concentration (IC50) in test [7], in test [8], in [9] and in test [10] was over 50 µM in each case.
Consider `C=C(/C=C/c1ccc(Br)cc1F)[C@@H]1CC[C@]2(C(=O)O)CC[C@]3(C)[C@H](CC[C@@H]4[C@@]5(C)CC[C@H](O)C(C)(C)[C@@H]5CC[C@]43C)[C@@H]12`, for which the IC50 in test [1] is 22.4 µM; in test [2], over 50 µM; in test [3], 33.5 µM; in test [4], 33.6 µM; in test [5], 26 µM; in test [6], over 50 µM. Besides, the IC50 in [7] came to 32.5 µM; in [8], 29.7 µM; in test [9], 43 µM; in test [10] it was 33.7 µM.
On to `C=C(/C=C/c1cccc(I)c1)[C@@H]1CC[C@]2(C(=O)O)CC[C@]3(C)[C@H](CC[C@@H]4[C@@]5(C)CC[C@H](O)C(C)(C)[C@@H]5CC[C@]43C)[C@@H]12`, for which the IC50 in test [1] was 11.6 µM; in test [2], over 50 µM; in [3] it was 27.3 µM; in test [4], 29.5 µM; in test [5] it was 25.2 µM; in test [6], 48.4 µM. In addition, the half-inhibitory concentration (IC50) is 38.7 µM in test [7], 28.4 µM in [8], over 50 µM in test [9] and over 50 µM in [10].
With `C=C(/C=C/c1cccc(C(F)(F)F)c1)[C@@H]1CC[C@]2(C(=O)O)CC[C@]3(C)[C@H](CC[C@@H]4[C@@]5(C)CC[C@H](O)C(C)(C)[C@@H]5CC[C@]43C)[C@@H]12`, the IC50 worked out at 8 µM in [1]; 28.1 µM in test [2]; 23.1 µM in [3]; 24.8 µM in test [4]; 26.5 µM in [5]; 25.1 µM in test [6]. Also, the IC50 in test [7] is 35.1 µM; in test [8], 24.6 µM; in [9], over 50 µM; in test [10], 42.9 µM.
